# Source: PMC9872612, “Mouse α-Defensins: Structural and Functional Analysis of the 17 Cryptdin Isoforms Identified from a Single Jejunal Crypt” (Infection and Immunity, 2022)
# “And” between values parts separate entries of the source, which are not always exact repeats. Equal entries are not always repeated. Positions of bridges follow the written chain, without caps; N, C: chain ends. No end group written: not given here.
# Assays:
# E. coli ATCC 25922 = assay: virtual colony count (vCC) bactericidal assay, E. coli; format: cell-based, Escherichia coli
# Experimental: (§1) All cryptdins were subjected to a virtual colony count assay (vCC) we have previously developed ([67]), in which E. coli ATCC 25922 and S. aureus ATCC 29213 are exposed to a 2-fold serial dilution of cryptdin for 2 h in 10 mM sodium phosphate buffer (pH 7.4), before bacterial growth in the presence of Mueller-Hinton broth is monitored spectrophotometrically at 650 nm for a period of 12 h. The dose-dependent killing of E. coli and S. aureus by all 17 cryptdins is shown as bacterial survival curves in Fig. 6. The virtual lethal doses (vLDs) of cryptdins at 50%, 10%, 1% and 0.1% bacterial survival (or the vLD50, vLD90, vLD99, and vLD99.9 values) are tabulated in Table 1. The bactericidal activity of the Crp1 subclass of cryptdins is highly variable despite a high degree of sequence identity, with Crp1, Crp6, Crp11, and Crp16 being the weakest against both strains and Crp3, Crp8 to Crp10, Crp13, Crp14, and Crp17 being the strongest. The vLD50, vLD90, vLD99 and vLD99.9 values for Crp11 to E. coli differ from those for Crp14 by 3.4-, 7.0-, 11.8-, and 12.7-fold, respectively; for comparison, the vLD values for Crp11 to S. aureus are 3.1-, 5.0-, 6.8-, and 8.1-fold versus those for Crp10, respectively. Overall, S. aureus appears more susceptible to cryptdin killing than E. coli.
# (§2) Antimicrobial assays against E. coli ATCC 25922 and S. aureus ATCC 29213 were conducted using a published 96-well turbidimetric method called “virtual colony count” ([67]). Briefly, a 2-fold dilution series of cryptdin, ranging from 1 to 256 μg/mL in 10 mM sodium phosphate (pH 7.4), was incubated at 37°C for 2 h with E. coli or S. aureus at 1 × 10^6 CFU/mL (a total volume of 100 μL), followed by the addition of 100 μL of twice-concentrated Mueller-Hinton broth (MHB). In addition to […] controls containing no cryptdin, a negative control termed “input” consisted of a portion of the same cell suspension kept on ice during the initial 2 h of incubation and added to the microplate just before addition of 100 μL of twice-concentrated MHB. Kinetic measurements of bacterial growth at 37°C were taken every 5 min over the next 12 h spectrophotometrically at 650 nm using a Tecan Spark plate reader. Data analysis utilized a Visual Basic script to automate the determination of the time necessary for each growth curve to reach a threshold change in optical density at 650 nm of 0.02 (ΔOD650), as previously described ([67]). Since the threshold times are inversely and linearly dependent on the logarithmic concentration of bacteria ([67]), survival data can be readily inferred from these calibration curves established in the absence of cryptdin. The rate of survival was calculated as the number of CFU of cryptdin-treated cells/number of CFU of control cells.
# S. aureus ATCC 29213 = assay: virtual colony count (vCC) bactericidal assay, S. aureus; format: cell-based, Staphylococcus aureus
# Experimental: as §1, §2
# [1] = test system: same cryptdin peptide immobilized on a CM5 sensor chip; assay: surface plasmon resonance self-association of cryptdins; format: binding, mouse; details: 15.6-2,000 nM analyte over 400 to 500 RU of the same peptide on CM5 chip, 25°C, 10 mM HEPES, 150 mM NaCl, 3 mM EDTA, surfactant P20, pH 7.4; additional 150 mM NaCl for Crp1 and Crp11; Kd unattainable
# Experimental: We examined Crp1, Crp4, Crp11, and Crp14 for their ability to self-associate at 25°C in 10 mM HEPES, 150 mM NaCl, 3 mM EDTA, 0.005% surfactant P20 (pH 7.4) using surface plasmon resonance (SPR) techniques. […] Due to the heterogenetic nature of defensin self-association and the lack of an appropriate mathematic model for data analysis, an accurate measurement of thermodynamic parameters such as Kd was unattainable.
# FIG 10 Representative association and dissociation kinetics of cryptdins analyzed by surface plasmon resonance. Cryptdins in a 2-fold dilution series at concentrations ranging from 15.625 to 2000 nM were analyzed on self-immobilized sensor chips with resonance units (RUs) of 404 for Crp1 (A), 541 for Crp4 (B), 458 for Crp11 (C), 488 for Crp14 (D). To suppress nonspecific electrostatic interactions, an additional 150 mM NaCl was added to the running buffer for Crp1 and Crp11.
# Surface plasmon resonance (SPR) experiments were performed, as described previously ([80]), on a BIAcore T200 system, at 25°C, in HBS-EP buffer (10 mM HEPES, 150 mM NaCl, 3 mM EDTA, […] surfactant P20 [pH 7.4]), with or without additional 150 mM NaCl. […] Analytes in a 2-fold dilution series at concentrations varying from 15.625 to 2,000 nM were injected into the flow cells at 30 μL/min in the running buffer, and association and dissociation assessed for 5 and 10 min, respectively. […]
# [2] = dynamic light scattering (DLS) particle size / self-association in solution; format: physicochemical; details: DLS number distribution, equilibrated 120 s, room temperature, Malvern Zetasizer, representative
# Experimental: For verification, we subjected the four cryptdin peptides at 10 μM to dynamic light scattering (DLS) analysis in phosphate saline buffers at pH 7.4 and pH 3.0. […] However, the particle sizes of Crp1 and Crp11 shifted dramatically at the elevated pH, to ~200 nm and >1,000 nm, respectively, indicative of formation of high-ordered soluble aggregates in solution. These DLS data are in qualitative agreement with the SPR findings.
# Of note, Cryp1 and Cryp11 are among the weakest cryptdins against E. coli and S. aureus, whereas Cryp4 and Cryp14 are potently bactericidal. This phenomenon raised an intriguing possibility that the ability of cryptdins to self-associate in solution could perhaps inform their antibacterial activity.
# Dynamic light scattering (DLS) is a technique that can be used to measure the hydrodynamic diameter of proteins in solution. The principle of this technique lies in the fact that the apparent size of a protein molecule is inversely related to the speed at which it diffuses in a constant, random Brownian motion; size information can be derived mathematically through deconvolution algorithms once the rate at which the intensity of scattered laser light fluctuates as a function of time is determined by DLS ([93]). […]
# [3] = virtual lethal dose killing 90% of input cells, 2 h at 37°C in 10 mM sodium phosphate pH 7.4, three independent assays
substance,measurement,setting,value
"Crp1: mouse α-defensin cryptdin isoform 1, chemically synthesized and oxidatively folded, three disulfides (LRDLVCYCRSRGCKGRERMNGTCRKGHLLYTLCCR; disulfide 13-33, 8-23, 6-34; not fully specified; UniProt P11477 59-93, looked up)",reduction of E. coli survival,"E. coli ATCC 25922; peptide at 256 μg/mL, vCC",5 orders of magnitude
same,"Mean vLD ± SD, E. coli ATCC 25922, vLD50","E. coli ATCC 25922; virtual lethal dose killing 50% of input cells, 2-fold dilutions 1-256 μg/mL, 2 h at 37°C in 10 mM sodium phosphate pH 7.4, 1 × 10^6 CFU/mL, then MHB growth 12 h read at 650 nm, three independent assays",5.9 ± 0.3 µg/mL
same,"Mean vLD ± SD, E. coli ATCC 25922, vLD90",E. coli ATCC 25922; [3],13.4 ± 0.6 µg/mL
same,"Mean vLD ± SD, E. coli ATCC 25922, vLD99","E. coli ATCC 25922; virtual lethal dose killing 99% of input cells, 2 h at 37°C in 10 mM sodium phosphate pH 7.4, three independent assays, LOD = limit of detection",25.4 ± 2.3 µg/mL
same,"Mean vLD ± SD, E. coli ATCC 25922, vLD99.9","E. coli ATCC 25922; virtual lethal dose killing 99.9% of input cells, 2 h at 37°C in 10 mM sodium phosphate pH 7.4, three independent assays, LOD = limit of detection",41.9 ± 4.8 µg/mL
same,concentration at which S. aureus was completely killed / growth eliminated,"S. aureus ATCC 29213; vCC survival curves, 2-fold dilution series, mean of triplicate experiments",32 µg/mL
same,"Mean vLD ± SD, S. aureus ATCC 29213, vLD50","S. aureus ATCC 29213; virtual lethal dose killing 50% of input cells, 2 h at 37°C in 10 mM sodium phosphate pH 7.4, 1 × 10^6 CFU/mL, three independent assays",3.9 ± 0.6 µg/mL
same,"Mean vLD ± SD, S. aureus ATCC 29213, vLD90",S. aureus ATCC 29213; [3],6.1 ± 0.5 µg/mL
same,"Mean vLD ± SD, S. aureus ATCC 29213, vLD99","S. aureus ATCC 29213; virtual lethal dose killing 99% of input cells, 2 h at 37°C in 10 mM sodium phosphate pH 7.4, three independent assays",9.1 ± 0.3 µg/mL
same,"Mean vLD ± SD, S. aureus ATCC 29213, vLD99.9","S. aureus ATCC 29213; virtual lethal dose killing 99.9% of input cells, 2 h at 37°C in 10 mM sodium phosphate pH 7.4, three independent assays",11.9 µg/mL and 11.9 ± 0.5 µg/mL
same,self-association/dissociation kinetics by SPR,[1],"slow association, followed by slow dissociation kinetics"
same,"particle size in diameter by DLS, pH 3.0","[2]; 10 μM peptide in phosphate saline buffer pH 3.0, filtered 0.22 μm disc membrane",around 1 nm
same,"particle size in diameter by DLS, pH 7.4","[2]; 10 μM peptide in phosphate saline buffer pH 7.4, filtered 0.22 μM disc membrane",~ 200 nm
